Source: patent publication US20120010148A1, “COMBINATION THERAPIES USING NAP” (ALLON THERAPEUTICS INC., priority 2008, published 2012)
“Also recorded” adds a separate entry of the source.

Experiments:
STOP+/+ mice = assay: Behavioral tests in control STOP+/+ mice; format: in vivo, mouse
Description: For the initial comparisons of STOP+/− mice to STOP+/+ mice (littermates), each experimental group included 10-12 mice, 4-12 month-old; mean age 6 months, there were no highly significant differences between the tested ages in terms of the behavioral outcome). The STOP+/+ and STOP+/− male mice received daily (5 days a week) NAP nasal application vehicle as follows below for the duration of 7-10 weeks.
The NAP vehicle solution (termed DD), included the following ingredients (per milliliter): 7.5 mg of NaCl, 1.7 mg of citric acid monohydrate, 3 mg of disodium phosphate dihydrate, and 0.2 mg of benzalkonium chloride solution (50%) (Alcalay R N et al., Neurosci Lett, 361(1-3): 128-131 (2004)). […]
Locomotor activity was measured in 5 consecutive sessions, 3 minutes each and the mean path length in cm of each mouse in the 3 minute sessions per the entire 15 minute period of observation in open field (80 cm diameter) was determined. […]
The test is based on visual discrimination between two different objects in an arena of 30 cm×40 cm. […] One hour after the daily intranasal NAP treatment, or clozapine injection, each male mouse was exposed to two identical objects for 5 minutes and the time spent sniffing/touching each object was measured (first daily session). […] The data was analyzed using two different methods. […]

[1] = system: animal models simulating parts of the Alzheimer's disease pathology; settings: in vivo; cited from earlier work
normal aging rats = settings: intranasal administration; cited from earlier work
[2] = system: model of fetal alcohol syndrome; settings: in vivo, ip; cited from earlier work
[3] = system: Human SH-SY5Y neuroblastoma; assay: Clozapine-induced cell death in SH-SY5Y cells, MTS assay; format: cell-based; settings: 24 hours
Description: Clozapine, a widely used anti psychotic drug may be associated with increased cell mortality. It was not known, however, whether NAP ([…], SEQ ID NO:2) treatment would inhibit clozapine associated neuronal death. To address this question and validate the efficiency of using a NAP-clozapine combination drug candidate, an experimental test system in cell culture was established (Heiser et al., Journal of Psychopharmacology 21(8):851-856 (2007)). Human SH-SY5Y neuroblastoma supplemented with 15% fetal calf serum (FCS) (Beit-Haemek, Israel), 1% penicillin-streptomycin, and 1% glutamine were incubated in a 5% CO2 atmosphere. Thirty-six thousand cells/well (in a 96 well plates) were plated 24 hours prior to the clozapine or NAP treatment. Clozapine (CLZ) was obtained from Sigma Chemicals (Sigma, Israel). Thirty-six thousand cells per well (in at least 6 replicate wells) were exposed to clozapine (CLZ, 20 μg/ml) or clozapine (CLZ, 20 μg/ml)+NAP or NAP alone (10^−15M-10^−10 M) for 24 hours at 37° C. Drug and control solutions were dissolved in ethanol. Measurement of metabolic activity and survival was determined by non-radioactive cell proliferation assay (MTS) (Promega, USA) and evaluated by an ELISA-reader at 490 nm wavelength.

[4] = system: closed head injury in mice; settings: cited from earlier work
[5] = system: ADNP-deficient mice, triple transgenic mouse model of AD, model of frontotemporal dementia; settings: in vivo; cited from earlier work
STOP+/− mice = assay: Social recognition test; format: in vivo; settings: 8-month-old STOP+/− mice; NAP 0.5 microgram/mouse/day, clozapine 3 mg/kg/day, FIG. 16
Procedure: In the social recognition test, 8-month-old mice (STOP+/−) were habituated for 20 minutes in a cage and then exposed to a new juvenile mouse (1.5-month old) for one minute—followed by a 30-minute interval and another 1 minute exposure four times (familiarizing the test subject with the juvenile mouse). The fifth exposure session included a novel juvenile mouse. Time spent interacting with the juvenile mouse was recorded.

schizophrenia patients = settings: human clinical trial; cited from earlier work

CC[C@H](C)[C@H](NC(=O)[C@H](CO)NC(=O)[C@@H](NC(=O)[C@@H]1CCCN1C(=O)[C@H](C)NC(=O)[C@@H](N)CC(N)=O)C(C)C)C(=O)N1CCC[C@H]1C(=O)N[C@@H](CCC(N)=O)C(=O)O [NAP]
open field locomotor activity in control mice (STOP+/+ mice; STOP+/+ mice, NAP intranasal 0.5 μg/mouse/day): trend; also recorded: non-significant effect
cognitive performance of control mice (STOP+/+ mice; control mice treated with NAP): did not show improvement in their cognitive performance
protection in Alzheimer's disease pathology models [1]: protective
performance in the Morris water maze (normal aging rats): improved performance
fetal death after intraperitoneal injection of alcohol [2]: inhibited
effect on clozapine induced cell death ([3]; NAP 10^−15M with clozapine 20 μg/ml, FIG. 1): reversed
cell mortality with NAP alone ([3]; NAP alone 10^−15M-10^−10 M, FIG. 2): does not affect cell mortality; also recorded: did not affect cell mortality
damage caused by closed head injury [4]: reduced damage
tau hyperphosphorylation and cognitive functions [5]: reduces tau hyperphosphorylation and enhances cognitive functions
social recognition behavior (STOP+/− mice): partially ameliorated
activity in schizophrenia patients (schizophrenia patients): shown activity
